Laboratory results reported in US11684614B2, “Formulations of hydroxypyridonate actinide/lanthanide decorporation agents” (priority 2017, dated 2023).
Like-named read-outs stand apart in the source and are kept apart here.

What was measured:
[1] = Related substance assay / chromatographic API purity of prototype formulations; format: physicochemical
Excerpt: Analytical Method I for Related Substance Assay (TABLE 2.5):
This method was previously established and validated (see 3,4,3-L1(1,2-HOPO)—Excipient Compatibility Study; EXAMPLE 1). Suitability was therefore not re-evaluated as part of this study.
Analytical Method I for Related Substance Assay (TABLE 2.6):
The related substances, estimated as area (%) from the chromatograms, and the chromatographic purity of 3,4,3-L1(1,2-HOPO) in selected prototype formulations are listed in TABLE 2.28.

[2] = format: in vivo, Swiss-Webster mice; conditions: for urinary excretion, of administered dose: rodents (mice)
Excerpt: (§1) Formulated material was used in the single dose in vivo ADME characterization studies in Sprague Dawley rats and Swiss-Webster mice with 14C-labeled 3,4,3-L1(1,2-HOPO).
(§2) Pharmacokinetic parameters and disposition/biodistribution of 3,4,3-L1(1,2-HOPO) were characterized in vivo (with the aid of two 14C labels on the spermine backbone of the parent product) in two non-GLP studies using Swiss-Webster mice and Sprague Dawley rats. The study designs for these two studies are shown in TABLE 5.1 and TABLE 5.2, respectively. Groups of six mice (3 male, 3 female) were given a single dose of [14C]-3,4,3-L1(1,2-HOPO) via iv, ip, or po routes, respectively. An additional group of six mice (3 male, 3 female) were administered the 14C-labeled API with permeability enhancer (10% sodium oleate) by oral gavage (po). Similarly, groups of six rats (3 male, 3 female) were administered a single iv dose of the 14C-labeled API or a single po dose of the 14C-labeled API with 10% sodium oleate. In each of these studies, samples were collected at scheduled time points up to 24 hr post-dose and analyzed for 14C content using liquid scintillation counting. Blood, liver, kidney, feces and urine were collected and analyzed from the mice. Blood, brain, liver, kidney, lungs, spleen, skeletal muscle tissues, gastrointestinal (GI) tract samples, carcasses, feces, and urine were collected and analyzed from the rats.

[3] = Radiolabeled in vivo ADME study in rats (with metabolite profiling); design: species or system Sprague Dawley rats; conditions: for urinary excretion, of administered dose: rodents (rats)
Excerpt: as §1, §2
The principal excretion routes of radioactivity from [14C]-3,4,3-L1(1,2-HOPO) were both the feces and urine after an iv dose based on high levels of radioactivity in both feces and urine as well as significant radioactivity in the excretory tissues, kidney, liver and GI tract. Fecal elimination by 24 hr post-dose accounted for approximately 62% and 16% of the iv administered dose in mice and rats, respectively. Urinary excretion accounted for approximately 12-23% of the iv administered dose in these rodents with renal excretion of 14C beginning as early as 5 min after iv injection in mice. In contrast, following oral administration, excretion was primarily by the fecal route accounting for approximately 89% and 41% of the orally administered dose in mice and rats, respectively, by 24 h post-dose. Urinary excretion accounted for <1% of the orally administered dose and low radioactivity levels were detected in systemic circulation and in tissues except for the GI tract. […] Based on the colonic transit time in rats of 15.5 hr, 11 the radioactivity found in the feces in the first 24 hr after po administration is most likely unabsorbed compound. […] Metabolite profiling of [14C]-3,4,3-L1(1,2-HOPO) was performed using an HPLC method on selected urine, feces, kidney, liver, and lung samples from the Sprague Dawley rat. Only samples containing the highest total radioactive levels were selected for analysis. A total of 11 peaks were detected, of which 6 were from uncharacterized interactions between the test article and matrix components because they were also seen in spiked blank matrix controls. These 6 peaks are not metabolites and are considered alternate forms of the parent compound (e.g. complexes of the test article with metallic ions). The 5 other radioactive species (peaks P1-P4 and P10) are considered potential metabolites. Feces-specific metabolite peaks P2, P3, and P10 represented a combined 10.5-11.4% and 0.5-4.2% of the administered dose after po or iv administration, respectively, in rats. Peak P10 was the most abundant peak in all samples analyzed. It represented up to 10% of the administered dose in feces after po administration while the other two feces-specific peaks represented <1% of the administered dose after po administration. Peak P10 was also the predominant, and sometimes the only, peak in feces samples after iv administration. […]

Compound: O=C(NCCCN(CCCCN(CCCNC(=O)c1cccc(=O)n1O)C(=O)c1cccc(=O)n1O)C(=O)c1cccc(=O)n1O)c1cccc(=O)n1O [Drug Substance Control]
- Chromatographic Purity of 3,4,3-LI(1,2-HOPO) ([1]; 3,4,3-LI(1,2-HOPO) peak): 97.45 area (%)
- Related Substances, Unknown peak ([1]; RRT 0.59): 0.01 area (%)
- Related Substances, Unknown peak ([1]; RRT 0.61): 0.01 area (%)
- Related Substances, Unknown peak ([1]; RRT 0.62): 0.01 area (%)
- Related Substances, Unknown peak ([1]; RRT 0.87): 0.11 area (%)
- Related Substances, Unknown peak ([1]; RRT 0.89): 0.13 area (%)
- Related Substances, Unknown peak ([1]; RRT 1.02): 0.08 area (%)
- Related Substances, Unknown peak ([1]; RRT 1.11): 0.04 area (%)
- Related Substances, Unknown peak ([1]; RRT 1.27): 0.17 area (%)
- Related Substances, Unknown peak ([1]; RRT 1.30): 0.10 area (%)
- Related Substances, Unknown peak ([1]; RRT 1.39): 0.20 area (%)
- Related Substances, Unknown peak ([1]; RRT 1.40): 0.04 area (%)
- Related Substances, Unknown peak ([1]; RRT 1.46): 0.60 area (%)
- Related Substances, Unknown peak ([1]; RRT 1.74): 0.15 area (%)
- Related Substances, Unknown peak ([1]; RRT 1.89): 0.18 area (%)
- Related Substances, Unknown peak ([1]; RRT 2.17): 0.33 area (%)
- Related Substances, Unknown peak ([1]; RRT 2.30): 0.05 area (%)
- Related Substances, Unknown peak ([1]; RRT 2.58): 0.25 area (%)
- Related Substances, Unknown peak ([1]; RRT 2.79): 0.11 area (%)

Compound: [14C]-3,4,3-L1(1,2-HOPO)
- time of highest level of radioactivity in kidneys and liver ([2]; ip, mice): 1 h
- fecal elimination, of administered dose ([2]; iv, by 24 hr post-dose, mice): approximately 62%
- AUC (plasma radioactivity) ([2]; iv, female mice): 66.2 hr Pg-eq/ml
- C0 (plasma radioactivity) ([2]; iv, female mice): 342 Pg-eq/mL
- AUC (plasma radioactivity) ([2]; iv, male mice): 41.7 hr Pg-eq/ml
- C0 (plasma radioactivity) ([2]; iv, male mice): 76 Pg-eq/mL
- time of highest level of radioactivity in kidneys and liver ([2]; iv, mice): 1 h
- urinary excretion, of administered dose ([2]; iv): 12-23%
- oral bioavailability improvement with sodium oleate ([2]; mice): 2- to 3 fold
- fecal excretion, of administered dose ([2]; oral, by 24 h post-dose, mice): approximately 89%
- bioavailability of total radioactivity ([2]; oral, mice): < 3%
- urinary excretion, of administered dose ([2]; oral): < 1%
- general rank order of tissue concentrations ([3]; iv, 2 hr time point, rats): kidney>liver>lung>brain spleen muscle
- fecal elimination, of administered dose ([3]; iv, by 24 hr post-dose, rats): ~16%
- AUC (plasma radioactivity) ([3]; iv, female rats): 211 hr Pg-eq/ml
- C0 (plasma radioactivity) ([3]; iv, female rats): 422 Pg-eq/ml
- AUC (plasma radioactivity) ([3]; iv, male rats): 354 hr Pg-eq/ml
- C0 (plasma radioactivity) ([3]; iv, male rats): 463 Pg-eq/ml
- feces-specific metabolite peaks P2, P3, and P10 combined, of the administered dose ([3]; iv, rats): 0.5-4.2%
- metabolite peak P1 in urine, of the administered dose ([3]; iv, rats): ≤ 0.4%
- time of highest level of radioactivity in kidneys and liver ([3]; iv, rats): 2 h
- urinary excretion, of administered dose ([3]; iv): 12-23%
- fecal excretion, of administered dose ([3]; oral, by 24 h post-dose, rats): ~41%
- bioavailability of total radioactivity ([3]; oral, rats): < 3%
- putative major metabolite (P10), of an administered oral dose ([3]; oral, rats): ~10%
- urinary excretion, of administered dose ([3]; oral): < 1%
- feces-specific metabolite peaks P2, P3, and P10 combined, of the administered dose ([3]; po, rats): 10.5-11.4%
- other two feces-specific peaks, of the administered dose ([3]; po, rats): < 1%
- peak P10 in feces, of the administered dose ([3]; po, rats): up to 10%
